Patent US12458021B2, “Microbiocidal derivatives” (SYNGENTA CROP PROTECTION AG, priority 2019, dated 2025)

Key:
[1] = test system: Alternaria solani; test: Alternaria solani / tomato / leaf disc (early blight); format: in vivo; details: foliar, tomato leaf disks cv. Baby, inoculated 2 days after application, assessed 5-7 days after application, read-out: control of Alternaria solani (percent disease control compared to untreated)
Method: Example B1: Alternaria solani/Tomato/Leaf Disc (Early Blight) Tomato leaf disks cv. Baby are placed on agar in multiwell plates (24-well format) and sprayed with the formulated test compound diluted in water. The leaf disks are inoculated with a spore suspension of the fungus 2 days after application. The inoculated leaf disks are incubated at 23° C./21° C. […] […]-185.

[2] = test system: Botryotinia fuckeliana (Botrytis cinerea); test: Botryotinia fuckeliana (Botrytis cinerea) / liquid culture (gray mould); format: cell-based; details: Vogels broth, 24° C., 3-4 days after application, read-out: control of Botryotinia fuckeliana (inhibition of growth, photometric)
Method: Example B2: Botryotinia fuckeliana (Botrytis cinerea)/Liquid Culture (Gray Mould) Conidia of the fungus from cryogenic storage are directly mixed into nutrient broth (Vogels broth). After placing a (DMSO) solution of test compound into a microtiter plate (96-well format), the nutrient broth containing the fungal spores is added. The test plates are incubated at 24° C. and the inhibition of growth is determined photometrically 3-4 days after application. […] […]-190.

[3] = test system: Glomerella lagenarium (Colletotrichum lagenarium); test: Glomerella lagenarium (Colletotrichum lagenarium) / liquid culture (anthracnose); format: cell-based; details: Colletotrichum orbiculare, PDB potato dextrose broth, 24° C., 3-4 days after application, read-out: control of Glomerella lagenarium (inhibition of growth, photometric)
Procedure, shortened: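 Fungal growth inhibition measured photometrically 3-4 days post-application at 24° C. Spores were mixed directly into potato dextrose broth and dispensed onto test compound supplied in DMSO.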

[4] = test system: Blumeria graminis f. sp. tritici (Erysiphe graminis f. sp. tritici); test: Blumeria graminis f. sp. tritici / wheat / leaf disc preventative (powdery mildew on wheat); format: in vivo; details: foliar, wheat leaf segments cv. Kanzler, inoculated 1 day after application, assessed 6-8 days after application, read-out: control of Blumeria graminis f. sp. tritici (percent disease control compared to untreated)
From the text: Example B4: Blumeria graminis f. sp. tritici (Erysiphe graminis f. sp. tritici)/Wheat/Leaf Disc Preventative (Powdery Mildew on Wheat) Wheat leaf segments cv. Kanzler are placed on agar in a multiwell plate (24-well format) and sprayed with the formulated test compound diluted in water. The leaf disks are inoculated by shaking powdery mildew infected plants above the test plates 1 day after application. […] […]-192.

[5] = test system: Phaeosphaeria nodorum (Septoria nodorum); test: Phaeosphaeria nodorum (Septoria nodorum) / wheat / leaf disc preventative (glume blotch); format: in vivo; details: Parastagonospora nodorum, foliar, wheat leaf segments cv. Kanzler, inoculated 2 days after application, assessed 5-7 days after application, read-out: control of Phaeosphaeria nodorum (percent disease control compared to untreated)
Method: Example B6: Phaeosphaeria nodorum (Septoria nodorum)/Wheat/Leaf Disc Preventative (Glume Blotch) Wheat leaf segments cv. Kanzler are placed on agar in a multiwell plate (24-well format) and sprayed with the formulated test compound diluted in water. The leaf disks are inoculated with a spore suspension of the fungus 2 days after application. The inoculated test leaf disks are incubated at 20° C. and 75% rh under a light regime of 12 h light/12 h darkness in a climate cabinet and the activity of a compound is assessed as percent disease control compared to untreated when an appropriate level of disease damage appears in untreated check leaf disks (5-7 days after application). […] […]-190.

[6] = test system: Monographella nivalis (Microdochium nivale); test: Monographella nivalis (Microdochium nivale) / liquid culture (foot rot cereals); format: cell-based; details: PDB potato dextrose broth, 24° C., 4-5 days after application, read-out: control of Monographella nivalis (inhibition of growth, photometric)
Procedure, shortened: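 Growth inhibition measured by photometry 4-5 days post-application at 24° C. Compound was dispensed as DMSO solution, then PDB broth containing conidia from cryogenic storage was added.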

[7] = test system: Puccinia recondita f. sp. tritici; test: Puccinia recondita f. sp. tritici / wheat / leaf disc preventative (brown rust); format: in vivo; details: foliar, wheat leaf segments cv. Kanzler, inoculated 1 day after application, assessed 7-9 days after application, read-out: control of Puccinia recondita f. sp. tritici, preventative (percent disease control compared to untreated)
Procedure, shortened: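 Wheat leaf segments (cv. Kanzler) on agar were sprayed with formulated compound, then inoculated with spores 1 day later. Segments were incubated at 19 °C, 75% rh with 12 h light/dark. Percent disease control versus untreated was scored 7–9 days after application.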

[8] = test system: Magnaporthe grisea (Pyricularia oryzae); test: whole plant or invertebrate; format: in vivo; details: foliar, read-out: control of Magnaporthe grisea (percent disease control compared to untreated)
[9] = test system: Mycosphaerella graminicola (Septoria tritici); test: Mycosphaerella graminicola (Septoria tritici) / liquid culture (Septoria blotch); format: cell-based; details: Zymoseptoria tritici, PDB potato dextrose broth, 24° C., 4-5 days after application, read-out: control of Mycosphaerella graminicola (inhibition of growth, photometric)
Procedure, shortened: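 Fungal growth inhibition was read photometrically 4-5 days after application. Compound was dosed from a DMSO solution into liquid cultures of spores in potato dextrose broth, incubated at 24° C.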

[10] = test system: Pyrenophora teres; test: Pyrenophora teres / barley / leaf disc preventative (net blotch); format: in vivo; details: foliar, barley leaf segments cv. Hasso, inoculated 2 days after application, assessed 5-7 days after application, read-out: control of Pyrenophora teres (disease control compared to untreated)
Procedure, shortened: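 Barley cv. Hasso leaf discs on agar were sprayed with diluted formulated compound, then inoculated with spore suspension 2 days later. Incubation at 20 °C, 65% rh, 12 h light/dark; disease control versus untreated assessed 5-7 days after application.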

[11] = test system: Mycosphaerella arachidis (Cercospora arachidicola); test: Mycosphaerella arachidis (Cercospora arachidicola) / liquid culture (early leaf spot); format: cell-based; details: PDB potato dextrose broth, 24° C., 4-5 days after application, read-out: control of Mycosphaerella arachidis (inhibition of growth, photometric)
Procedure, shortened: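 Conidia from cryogenic storage suspended in potato dextrose broth and added to compound in DMSO. Incubation at 24° C; growth inhibition read photometrically 4-5 days after application.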

CC(C)(C)NC(=O)c1cccc(Nc2cc(F)cc(F)c2)n1 [Compound P-112, N-tert-butyl-6-(3,5-difluoroanilino)pyridine-2-carboxamide]
≥ 80%: pest or weed control at 200 ppm [1] | inhibition at 20 ppm [2] | inhibition at 20 ppm [3] | pest or weed control at 200 ppm [4] | pest or weed control at 200 ppm [5] | inhibition at 20 ppm [6] | pest or weed control at 200 ppm [7] | pest or weed control at 200 ppm [8] | inhibition at 20 ppm [9]

COc1cc(Nc2cc(F)cc(F)c2)nc(C(=O)NC(C)(C)C)c1 [Compound P-116, N-tert-butyl-6-(3,5-difluoroanilino)-4-methoxy-pyridine-2-carboxamide]
≥ 80%: inhibition at 20 ppm [2] | inhibition at 20 ppm [3] | pest or weed control at 200 ppm [5] | pest or weed control at 200 ppm [10]

CC1(NC(=O)c2cccc(Nc3cc(F)cc(F)c3)n2)CCCC1 [Compound P-119, 6-(3,5-difluoroanilino)-N-(1-methylcyclopentyl)pyridine-2-carboxamide]
≥ 80%: inhibition at 20 ppm [2] | inhibition at 20 ppm [3] | inhibition at 20 ppm [6] | pest or weed control at 200 ppm [7] | pest or weed control at 200 ppm [8] | inhibition at 20 ppm [9]

CC1(NC(=O)c2cccc(Nc3cc(F)nc(F)c3)n2)CCCC1 [Compound P-120, 6-[(2,6-difluoro-4-pyridyl)amino]-N-(1-methylcyclopentyl)pyridine-2-carboxamide]
≥ 80%: inhibition at 20 ppm [2] | inhibition at 20 ppm [3] | inhibition at 20 ppm [6] | pest or weed control at 200 ppm [7] | pest or weed control at 200 ppm [8] | inhibition at 20 ppm [9]

COc1ccc(Nc2ccc(C)c(Cl)c2)nc1C(=O)NCC(C)(C)C [Compound P-132, 6-(3-chloro-4-methyl-anilino)-N-(2,2-dimethylpropyl)-3-methoxy-pyridine-2-carboxamide]
≥ 80%: inhibition at 20 ppm [2] | inhibition at 20 ppm [3] | inhibition at 20 ppm [6] | inhibition at 20 ppm [9]

COc1ccc(Nc2cc(F)cc(Cl)c2)nc1C(=O)NCC(C)(C)C [Compound P-134, 6-(3-chloro-5-fluoro-anilino)-N-(2,2-dimethylpropyl)-3-methoxy-pyridine-2-carboxamide]
≥ 80%: inhibition at 20 ppm [2] | inhibition at 20 ppm [3] | pest or weed control at 200 ppm [4] | inhibition at 20 ppm [6] | pest or weed control at 200 ppm [10] | inhibition at 20 ppm [9]

COc1ccc(Nc2ccc(C)c(Cl)c2)nc1C(=O)NC(C)(C)C [Compound P-151, N-tert-butyl-6-(3-chloro-4-methyl-anilino)-3-methoxy-pyridine-2-carboxamide]
≥ 80%: inhibition at 20 ppm [2] | inhibition at 20 ppm [3] | inhibition at 20 ppm [6] | pest or weed control at 200 ppm [8] | inhibition at 20 ppm [9]

COc1ccc(Nc2cccc(Cl)c2)nc1C(=O)NC(C)(C)C [Compound P-155, N-tert-butyl-6-(3-chloroanilino)-3-methoxy-pyridine-2-carboxamide]
≥ 80%: inhibition at 20 ppm [2] | inhibition at 20 ppm [3] | inhibition at 20 ppm [6] | pest or weed control at 200 ppm [7] | pest or weed control at 200 ppm [8] | pest or weed control at 200 ppm [10] | inhibition at 20 ppm [9]

COc1ccc(Nc2cc(F)cc(F)c2)nc1C(=O)NC(C)C(C)(C)C (stereo not drawn) [Compound P-170, 6-(3,5-difluoroanilino)-3-methoxy-N-(1,2,2-trimethylpropyl)pyridine-2-carboxamide]
≥ 80%: pest or weed control at 200 ppm [1] | inhibition at 20 ppm [2] | inhibition at 20 ppm [3] | pest or weed control at 200 ppm [4] | inhibition at 20 ppm [6] | inhibition at 20 ppm [9]

COc1ccc(Nc2cc(F)cc(F)c2)nc1C(=O)NC(C)(C)C(C)(C)C [Compound P-171, 6-(3,5-difluoroanilino)-3-methoxy-N-(1,1,2,2-tetramethylpropyl)pyridine-2-carboxamide]
≥ 80%: pest or weed control at 200 ppm [1] | inhibition at 20 ppm [2] | inhibition at 20 ppm [3] | pest or weed control at 200 ppm [4] | pest or weed control at 200 ppm [5] | inhibition at 20 ppm [6] | inhibition at 20 ppm [11] | pest or weed control at 200 ppm [7] | pest or weed control at 200 ppm [10] | inhibition at 20 ppm [9]

COc1ccc(Nc2cc(F)cc(F)c2)nc1C(=O)NC(C)(C)C(C)C [Compound P-172, 6-(3,5-difluoroanilino)-3-methoxy-N-(1,1,2-trimethylpropyl)pyridine-2-carboxamide]
≥ 80%: pest or weed control at 200 ppm [1] | inhibition at 20 ppm [2] | inhibition at 20 ppm [3] | pest or weed control at 200 ppm [4] | pest or weed control at 200 ppm [5] | inhibition at 20 ppm [6] | inhibition at 20 ppm [11] | pest or weed control at 200 ppm [7] | inhibition at 20 ppm [9]

COc1ccc(Nc2cc(F)nc(F)c2)nc1C(=O)NC(C)(C)C(C)C [Compound P-173, 6-[(2,6-difluoro-4-pyridyl)amino]-3-methoxy-N-(1,1,2-trimethylpropyl)pyridine-2-carboxamide]
≥ 80%: pest or weed control at 200 ppm [1] | inhibition at 20 ppm [2] | inhibition at 20 ppm [3] | pest or weed control at 200 ppm [4] | inhibition at 20 ppm [6] | pest or weed control at 200 ppm [7] | inhibition at 20 ppm [9]

Cc1ccc(Nc2cc(F)cc(F)c2)nc1C(=O)NC1CCC1(C)C (stereo not drawn) [Compound P-175, 6-(3,5-difluoroanilino)-N-(2,2-dimethylcyclobutyl)-3-methyl-pyridine-2-carboxamide]
≥ 80%: inhibition at 20 ppm [2] | inhibition at 20 ppm [3] | inhibition at 20 ppm [6] | inhibition at 20 ppm [9]

COc1ccc(N(C(C)=O)c2cc(F)cc(F)c2)nc1C(=O)NC1CCC1(C)C (stereo not drawn) [Compound P-189, 6-(N-acetyl-3,5-difluoro-anilino)-N-(2,2-dimethylcyclobutyl)-3-methoxy-pyridine-2-carboxamide]
≥ 80%: inhibition at 20 ppm [2] | inhibition at 20 ppm [3] | pest or weed control at 200 ppm [4] | pest or weed control at 200 ppm [5] | inhibition at 20 ppm [6] | pest or weed control at 200 ppm [8] | inhibition at 20 ppm [9]

COc1ccc(Nc2cc(F)cc(F)c2Cl)nc1C(=O)NC(C)(C)C [Compound P-190, N-tert-butyl-6-(2-chloro-3,5-difluoro-anilino)-3-methoxy-pyridine-2-carboxamide]
≥ 80%: inhibition at 20 ppm [2] | inhibition at 20 ppm [3] | pest or weed control at 200 ppm [5] | inhibition at 20 ppm [6] | pest or weed control at 200 ppm [7] | inhibition at 20 ppm [9]
